US20250059198A1, “BRM DEGRADING COMPOUNDS AND ASSOCIATED METHODS OF USE” (Arvinas Operations, Inc., priority 2021, published 2025)

Molecular target: T1, BRM (Homo sapiens, UniProt P51531)
T1 construct: Western Blot Screen of BRM Degradation in SW1573 Cells; endogenous in cells; host or cells: SW1573 cells
Assay: BRM degradation (Dmax and DC50) in SW1573 cells, Western blot screen / In-Cell Western screen
Assay type: cell-based
Conditions: overnight (18-20 hours) treatment; for Dmax: read-out: Dmax (%)** (% degraded)
In short: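 Dmax and DC50 were derived from BRM levels normalised to an alpha-tubulin control, measured by chemiluminescent Western blotting of lysates or by PFA-fixed In-Cell Western on LI-COR Odyssey. SW1573 cells received compound overnight (18–20 h, 0.1% DMSO final).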

T1 sequence (P51531 whole entry): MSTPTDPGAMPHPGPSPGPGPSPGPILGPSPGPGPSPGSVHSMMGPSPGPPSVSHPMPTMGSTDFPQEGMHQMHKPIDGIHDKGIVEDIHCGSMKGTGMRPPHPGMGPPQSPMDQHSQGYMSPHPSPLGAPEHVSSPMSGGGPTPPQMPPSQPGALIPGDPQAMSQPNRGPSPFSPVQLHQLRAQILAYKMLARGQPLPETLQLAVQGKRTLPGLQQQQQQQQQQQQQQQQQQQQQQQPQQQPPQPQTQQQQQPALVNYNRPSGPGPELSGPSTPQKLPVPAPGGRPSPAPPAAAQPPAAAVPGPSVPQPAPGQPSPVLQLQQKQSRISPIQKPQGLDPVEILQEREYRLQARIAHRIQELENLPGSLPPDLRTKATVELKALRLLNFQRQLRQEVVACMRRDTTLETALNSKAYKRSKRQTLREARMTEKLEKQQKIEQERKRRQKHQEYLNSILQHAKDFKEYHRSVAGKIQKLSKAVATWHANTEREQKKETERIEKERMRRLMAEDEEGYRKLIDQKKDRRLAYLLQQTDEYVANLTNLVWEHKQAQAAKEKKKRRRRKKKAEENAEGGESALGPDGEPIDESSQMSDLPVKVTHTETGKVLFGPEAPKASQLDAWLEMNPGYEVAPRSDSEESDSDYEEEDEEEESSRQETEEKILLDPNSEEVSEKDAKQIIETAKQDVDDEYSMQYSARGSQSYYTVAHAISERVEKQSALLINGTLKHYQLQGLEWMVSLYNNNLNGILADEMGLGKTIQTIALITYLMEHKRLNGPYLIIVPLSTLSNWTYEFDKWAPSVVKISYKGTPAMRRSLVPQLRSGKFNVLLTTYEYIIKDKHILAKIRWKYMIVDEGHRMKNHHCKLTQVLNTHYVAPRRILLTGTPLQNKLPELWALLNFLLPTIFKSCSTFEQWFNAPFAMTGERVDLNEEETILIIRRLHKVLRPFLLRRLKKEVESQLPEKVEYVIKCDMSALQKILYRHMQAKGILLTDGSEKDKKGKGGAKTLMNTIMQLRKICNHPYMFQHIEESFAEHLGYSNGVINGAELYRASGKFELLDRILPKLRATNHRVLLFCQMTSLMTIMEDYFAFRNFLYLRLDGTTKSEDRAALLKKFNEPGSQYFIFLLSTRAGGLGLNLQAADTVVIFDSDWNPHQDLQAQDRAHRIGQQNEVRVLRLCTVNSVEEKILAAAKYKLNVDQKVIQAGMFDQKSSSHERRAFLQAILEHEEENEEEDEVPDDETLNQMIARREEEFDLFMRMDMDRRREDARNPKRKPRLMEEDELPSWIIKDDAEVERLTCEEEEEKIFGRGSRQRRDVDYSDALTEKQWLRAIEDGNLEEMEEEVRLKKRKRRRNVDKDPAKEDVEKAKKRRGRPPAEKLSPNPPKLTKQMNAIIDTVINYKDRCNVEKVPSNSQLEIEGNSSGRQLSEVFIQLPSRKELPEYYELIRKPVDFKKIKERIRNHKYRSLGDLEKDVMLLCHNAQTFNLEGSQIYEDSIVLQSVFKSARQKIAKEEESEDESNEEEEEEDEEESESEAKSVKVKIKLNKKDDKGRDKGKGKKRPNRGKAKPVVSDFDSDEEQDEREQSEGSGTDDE

| Dmax | SMILES | DC50 |
| --- | --- | --- |
| > 75% | Cc1ncsc1-c1ccc([C@H](C)NC(=O)[C@@H]2C[C@@H](O)CN2C(=O)[C@@H](c2cc(N3CCC(CN4CCC5(CC4)CC(N4CCO[C@@H](C(C)n6cc(-c7cc(-c8ccccc8O)nnc7N)cn6)C4)C5)CC3)no2)C(C)C)cc1 (stereo partly drawn) [Compound 89, (2S,4R)-1-[(2R)-2-{3-[4-({2-[(2R)-2-(1-{4-[3-amino-6-(2-hydroxyphenyl)pyridazin-4-yl]-1H-pyrazol-1-yl}ethyl)morpholin-4-yl]-7-azaspiro[3.5]nonan-7-yl}methyl)piperidin-1-yl]-1,2-oxazol-5-yl}-3-methylbutanoyl]-4-hydroxy-N-[(1S)-1-[4-(4-methyl-1,3-thiazol-5-yl)phenyl]ethyl]pyrrolidine-2-carboxamide] | < 2.5 nM |
| – | Cc1nccn1-c1ccc([C@H](C)NC(=O)[C@@H]2C[C@@H](O)CN2C(=O)[C@H](c2cc(N3CCC(CN4CCC(O[C@H]5C[C@H](N6CCC(C(C)n7cc(C#Cc8cc(-c9ccccc9O)nnc8N)cn7)CC6)C5)CC4)CC3)no2)C(C)C)cc1 (stereo partly drawn) [Compound 90, (2S,4R)-4-hydroxy-N-[(1S)-1-[4-(2-methyl-1H-imidazol-1-yl)phenyl]ethyl]-1-[(2S)-3-methyl-2-{3-[4-({4-[(1r,3r)-3-{4-[1-(4-{2-[3-amino-6-(2-hydroxyphenyl)pyridazin-4-yl]ethynyl}-1H-pyrazol-1-yl)ethyl]piperidin-1-yl}cyclobutoxy]piperidin-1-yl}methyl)piperidin-1-yl]-1,2-oxazol-5-yl}butanoyl]pyrrolidine-2-carboxamide] | ≥ 30 nM |
| – | CC(C)[C@H](C(=O)N1C[C@H](O)C[C@H]1C(=O)N[C@@H](C)c1ccc(C#N)cc1)c1cc(O[C@H]2C[C@H](C(C)(C)N3CCC(O[C@H]4C[C@H](Oc5cc(N6C7CCC6CN(c6cc(-c8ccccc8O)nnc6N)C7)ccn5)C4)CC3)C2)no1 [Compound 93, (2S,4R)-N-[(1S)-1-(4-cyanophenyl)ethyl]-4-hydroxy-1-[(2S)-3-methyl-2-{3-[(1r,3r)-3-(2-{4-[(1r,3r)-3-[(4-{3-[3-amino-6-(2-hydroxyphenyl)pyridazin-4-yl]-3,8-diazabicyclo[3.2.1]octan-8-yl}pyridin-2-yl)oxy]cyclobutoxy]piperidin-1-yl}propan-2-yl)cyclobutoxy]-1,2-oxazol-5-yl}butanoyl]pyrrolidine-2-carboxamide] | ≥ 30 nM |
| > 75% | Cc1ncsc1-c1ccc([C@H](C)NC(=O)[C@@H]2C[C@@H](O)CN2C(=O)[C@@H](c2cc(N3CCC(CN4CCC5(CC4)CC(N4CCO[C@H]([C@H](C)n6cc(C#Cc7cc(-c8ccccc8O)nnc7N)cn6)C4)C5)CC3)no2)C(C)C)cc1 [Compound 96, (2S,4R)-1-[(2R)-2-{3-[4-({2-[(2S)-2-[(1S)-1-(4-{2-[3-amino-6-(2-hydroxyphenyl)pyridazin-4-yl]ethynyl}-1H-pyrazol-1-yl)ethyl]morpholin-4-yl]-7-azaspiro[3.5]nonan-7-yl}methyl)piperidin-1-yl]-1,2-oxazol-5-yl}-3-methylbutanoyl]-4-hydroxy-N-[(1S)-1-[4-(4-methyl-1,3-thiazol-5-yl)phenyl]ethyl]pyrrolidine-2-carboxamide] | < 2.5 nM |
| > 75% | Cc1ncsc1-c1ccc([C@H](C)NC(=O)[C@@H]2C[C@@H](O)CN2C(=O)[C@@H](c2cc(N3CCC(CN4CCC5(CC4)CC(N4CCO[C@@H]([C@H](C)n6cc(C#Cc7cc(-c8ccccc8O)nnc7N)cn6)C4)C5)CC3)no2)C(C)C)cc1 [Compound 97, (2S,4R)-1-[(2R)-2-{3-[4-({2-[(2R)-2-[(1S)-1-(4-{2-[3-amino-6-(2-hydroxyphenyl)pyridazin-4-yl]ethynyl}-1H-pyrazol-1-yl)ethyl]morpholin-4-yl]-7-azaspiro[3.5]nonan-7-yl}methyl)piperidin-1-yl]-1,2-oxazol-5-yl}-3-methylbutanoyl]-4-hydroxy-N-[(1S)-1-[4-(4-methyl-1,3-thiazol-5-yl)phenyl]ethyl]pyrrolidine-2-carboxamide] | < 2.5 nM |
| > 75% | Cc1ncsc1-c1ccc([C@H](C)NC(=O)[C@@H]2C[C@@H](O)CN2C(=O)[C@@H](c2cc(N3CCC(CN4CCC5(CC4)CC(N4CCO[C@H]([C@@H](C)n6cc(C#Cc7cc(-c8ccccc8O)nnc7N)cn6)C4)C5)CC3)no2)C(C)C)cc1 [Compound 98, (2S,4R)-1-[(2R)-2-{3-[4-({2-[(2S)-2-[(1R)-1-(4-{2-[3-amino-6-(2-hydroxyphenyl)pyridazin-4-yl]ethynyl}-1H-pyrazol-1-yl)ethyl]morpholin-4-yl]-7-azaspiro[3.5]nonan-7-yl}methyl)piperidin-1-yl]-1,2-oxazol-5-yl}-3-methylbutanoyl]-4-hydroxy-N-[(1S)-1-[4-(4-methyl-1,3-thiazol-5-yl)phenyl]ethyl]pyrrolidine-2-carboxamide] | < 2.5 nM |
| > 75% | Cc1ncsc1-c1ccc([C@H](C)NC(=O)[C@@H]2C[C@@H](O)CN2C(=O)[C@@H](c2cc(N3CCC(CN4CCC5(CC4)CC(N4CCO[C@@H]([C@@H](C)n6cc(C#Cc7cc(-c8ccccc8O)nnc7N)cn6)C4)C5)CC3)no2)C(C)C)cc1 [Compound 99, (2S,4R)-1-[(2R)-2-{3-[4-({2-[(2R)-2-[(1R)-1-(4-{2-[3-amino-6-(2-hydroxyphenyl)pyridazin-4-yl]ethynyl}-1H-pyrazol-1-yl)ethyl]morpholin-4-yl]-7-azaspiro[3.5]nonan-7-yl}methyl)piperidin-1-yl]-1,2-oxazol-5-yl}-3-methylbutanoyl]-4-hydroxy-N-[(1S)-1-[4-(4-methyl-1,3-thiazol-5-yl)phenyl]ethyl]pyrrolidine-2-carboxamide] | < 2.5 nM |
| > 75% | Cc1ncsc1-c1ccc([C@H](C)NC(=O)[C@@H]2C[C@@H](O)CN2C(=O)[C@@H](c2cc(N3CCC(CN4CC[C@@H](OC(=O)N5CCN(c6cc(-c7ccccc7O)nnc6N)CC5)[C@@H](F)C4)CC3)no2)C(C)C)cc1 [Compound 101, (3S,4R)-3-fluoro-1-[(1-{5-[(2R)-1-[(2S,4R)-4-hydroxy-2-{[(1S)-1-[4-(4-methyl-1,3-thiazol-5-yl)phenyl]ethyl]carbamoyl}pyrrolidin-1-yl]-3-methyl-1-oxobutan-2-yl]-1,2-oxazol-3-yl}piperidin-4-yl)methyl]piperidin-4-yl 4-[3-amino-6-(2-hydroxyphenyl)pyridazin-4-yl]piperazine-1-carboxylate] | < 2.5 nM |

| SMILES | Dmax | DC50 |
| --- | --- | --- |
| Cc1nccn1-c1ccc([C@H](C)NC(=O)[C@@H]2C[C@@H](O)CN2C(=O)[C@@H](c2cc(N3CCC(CN4CCC(O[C@H]5C[C@H](N6CCC(C(C)n7cc(C#Cc8cc(-c9ccccc9O)nnc8N)cn7)CC6)C5)CC4)CC3)no2)C(C)C)cc1 (stereo partly drawn) [Compound 91, (2S,4R)-4-hydroxy-N-[(1S)-1-[4-(2-methyl-1H-imidazol-1-yl)phenyl]ethyl]-1-[(2R)-3-methyl-2-{3-[4-({4-[(1r,3r)-3-{4-[1-(4-{2-[3-amino-6-(2-hydroxyphenyl)pyridazin-4-yl]ethynyl}-1H-pyrazol-1-yl)ethyl]piperidin-1-yl}cyclobutoxy]piperidin-1-yl}methyl)piperidin-1-yl]-1,2-oxazol-5-yl}butanoyl]pyrrolidine-2-carboxamide] | > 75% | < 2.5 nM |
| Cc1ncsc1-c1ccc([C@H](C)NC(=O)[C@@H]2C[C@@H](O)CN2C(=O)[C@@H](c2cc(N3CCC(CN4CCC5(CC4)CC(N4CCO[C@H](C(C)(C)N6C7CCC6CN(c6cc(-c8ccccc8O)nnc6N)C7)C4)C5)CC3)no2)C(C)C)cc1 [Compound 94, (2S,4R)-1-[(2R)-2-{3-[4-({2-[(2S)-2-(2-{3-[3-amino-6-(2-hydroxyphenyl)pyridazin-4-yl]-3,8-diazabicyclo[3.2.1]octan-8-yl}propan-2-yl)morpholin-4-yl]-7-azaspiro[3.5]nonan-7-yl}methyl)piperidin-1-yl]-1,2-oxazol-5-yl}-3-methylbutanoyl]-4-hydroxy-N-[(1S)-1-[4-(4-methyl-1,3-thiazol-5-yl)phenyl]ethyl]pyrrolidine-2-carboxamide] | > 75% | 2.5 to 10 nM |
| Cc1ncsc1-c1ccc([C@H](C)NC(=O)[C@@H]2C[C@@H](O)CN2C(=O)[C@@H](c2cc(N3CCC(CN4CCC5(CC4)CC(N4CCO[C@@H](C(C)(C)N6C7CCC6CN(c6cc(-c8ccccc8O)nnc6N)C7)C4)C5)CC3)no2)C(C)C)cc1 [Compound 95, (2S,4R)-1-[(2R)-2-{3-[4-({2-[(2R)-2-(2-{3-[3-amino-6-(2-hydroxyphenyl)pyridazin-4-yl]-3,8-diazabicyclo[3.2.1]octan-8-yl}propan-2-yl)morpholin-4-yl]-7-azaspiro[3.5]nonan-7-yl}methyl)piperidin-1-yl]-1,2-oxazol-5-yl}-3-methylbutanoyl]-4-hydroxy-N-[(1S)-1-[4-(4-methyl-1,3-thiazol-5-yl)phenyl]ethyl]pyrrolidine-2-carboxamide] | > 75% | 2.5 to 10 nM |
| Cc1ncsc1-c1ccc([C@H](C)NC(=O)[C@@H]2C[C@@H](O)CN2C(=O)[C@@H](c2cc(N3CCC(CN4CCC(O[C@H]5C[C@H](N6CCC(C(C)n7ncc(-c8cc(-c9ccccc9O)nnc8N)c7F)CC6)C5)CC4)CC3)no2)C(C)C)cc1 (stereo partly drawn) [Compound 100, (2S,4R)-4-hydroxy-N-[(1S)-1-[4-(4-methyl-1,3-thiazol-5-yl)phenyl]ethyl]-1-[(2R)-3-methyl-2-{3-[4-({4-[(1r,3r)-3-[4-(1-{4-[3-amino-6-(2-hydroxyphenyl)pyridazin-4-yl]-5-fluoro-1H-pyrazol-1-yl}ethyl)piperidin-1-yl]cyclobutoxy]piperidin-1-yl}methyl)piperidin-1-yl]-1,2-oxazol-5-yl}butanoyl]pyrrolidine-2-carboxamide] | > 75% | < 2.5 nM |
